Test results: patent publication US20240148821A1, “PHARMACEUTICAL USE OF CYCLIC PEPTIDE COMPOUND” (CHUGAI SEIYAKU KABUSHIKI KAISHA, priority 2021, published 2024)
Numbered stars: 1 amine (or outer) side, 2 acyl side, 3 side chain; on linkers, the order of the positions; unused ones are H or OH. Bridge positions count the residues as written; N and C are the ends. Square brackets hold non-standard residues; d marks the D form. Peptide text beside a SMILES is read from it. * marks the point of attachment. hPhe(3,5-F2-4-CF3) = N[C@@H](CCc1cc(F)c(C(F)(F)F)c(F)c1)C(=O)O; hPhe(3-Cl-4-CF3) = N[C@@H](CCc1ccc(C(F)(F)F)c(Cl)c1)C(=O)O; NMePhe(4-CF3) = CN[C@@H](Cc1ccc(C(F)(F)F)cc1)C(=O)O; NMeAbu(4,4,4-F3) = CN[C@@H](CC(F)(F)F)C(=O)O; X110 = Cc1ccc(I)cc1C[C@H](N[*:1])C(=O)[*:2]; NMeGly(cPent) = CN[C@H](C(=O)O)C1CCCC1; Phe(3-I) = N[C@@H](Cc1cccc(I)c1)C(=O)O; Pro(4,4-F2) = O=C(O)[C@@H]1CC(F)(F)CN1; NMeY = CN[C@@H](Cc1ccc(O)cc1)C(=O)O; NMeCha = CN[C@@H](CC1CCCCC1)C(=O)O; NMeChg = CN[C@H](C(=O)O)C1CCCCC1; NMeI = CC[C@H](C)[C@H](NC)C(=O)O; NMeD = CN[C@@H](CC(=O)O)C(=O)O; NMeL = CN[C@@H](CC(C)C)C(=O)O; Chg = N[C@H](C(=O)O)C1CCCCC1; NMeAbu = CC[C@H](NC)C(=O)O; NMeA = CN[C@@H](C)C(=O)O; NMeAib = CNC(C)(C)C(=O)O; Nle = CCCC[C@H](N)C(=O)O; Piperidide = C1CCN(*)CC1; Pra = C#CC[C@H](N)C(=O)O; Pyrrolidide = C1CCN(*)C1; Ac5c = NC1(C(=O)O)CCCC1; Aze = O=C(O)[C@@H]1CCN1; Sar = CNCC(=O)O

system: Human pancreatic cancer cell line AsPC-1 (G12D mutation Kras); assay: AsPC-1 cell growth inhibition (AsPC-1 CGI); format: cell-based; conditions: read-out: AsPC-1 cell growth inhibition, 50% growth inhibitory concentration (IC50 value); 96 hours, CellTiter-Glo, values classified in ranges
Experimental: Test compounds were serially dilated with dimethyl sulfoxide, and 200 nL was then dispensed to a U-bottom 96-well plate using Labcyte Echo. […] The cell suspension was dispensed to a. plate containing a test compound at 100 μL per well and incubated at 37° C. in a 5% carbon dioxide gas incubator. 96 hours later, 80 μL of CellTiter-Glo (Promega) was added to each well and fluorescence was measured.

Q: Which IC50 does the source give for `CC[C@H](C)[C@@H]1NC(=O)[C@H](CC(C)C)N(C)C(=O)C[C@@H](C(=O)N2CCCC2)N(C)C(=O)[C@H](C2CCCC2)N(C)C(=O)C2(CCCC2)NC(=O)[C@@H]2CCCN2C(=O)[C@H](CCc2cc(F)c(C(F)(F)F)c(F)c2)NC(=O)CN(C)C(=O)[C@H](CC2CCCCC2)N(C)C(=O)CN(C)C(=O)CN(C)C1=O` [Compound 1342] ([NMeL]I[Sar][Sar][NMeCha][Sar][hPhe(3,5-F2-4-CF3)]P[Ac5c][NMeGly(cPent)][NMeD]-Pyrrolidide; lactam N-11) here?
A: ≤ 0.02 µM

Q: `CC[C@H](C)[C@@H]1NC(=O)[C@H](CC(C)C)N(C)C(=O)C[C@@H](C(=O)N2CCCC2)N(C)C(=O)[C@H]([C@@H](C)CC)N(C)C(=O)C2(CCCC2)NC(=O)[C@@H]2CCCN2C(=O)[C@H](CCc2cc(F)c(C(F)(F)F)c(F)c2)NC(=O)CN(C)C(=O)[C@H](Cc2ccc(C(F)(F)F)cc2)N(C)C(=O)[C@@H]2CCN2C(=O)[C@H](C)N(C)C1=O` [Compound 1343] ([NMeL]I[NMeA][Aze][NMePhe(4-CF3)][Sar][hPhe(3,5-F2-4-CF3)]P[Ac5c][NMeI][NMeD]-Pyrrolidide; lactam N-11) was tested. Which IC50 did it give?
A: ≤ 0.02 µM

Q: `CC[C@H](C)[C@@H]1NC(=O)[C@H](CC(C)C)N(C)C(=O)C[C@@H](C(=O)N2CCCCC2)N(C)C(=O)[C@H](C2CCCCC2)N(C)C(=O)C2(CCCC2)NC(=O)[C@@H]2CCCN2C(=O)[C@H](CCc2ccc(C(F)(F)F)c(Cl)c2)NC(=O)CN(C)C(=O)[C@H](CC2CCCCC2)N(C)C(=O)CN(C)C(=O)[C@H](C)N(C)C1=O` [Compound 1345] ([NMeL]I[NMeA][Sar][NMeCha][Sar][hPhe(3-Cl-4-CF3)]P[Ac5c][NMeChg][NMeD]-Piperidide; lactam N-11) was tested. Which IC50 did it give?
A: > 0.5 µM

Q: Which IC50 does the source give for `CC[C@H](C)[C@@H]1NC(=O)[C@H](CC(C)C)N(C)C(=O)C[C@@H](C(=O)N(C)C)N(C)C(=O)[C@H](C2CCCC2)N(C)C(=O)C2(CCCC2)NC(=O)[C@@H]2CC(F)(F)CN2C(=O)[C@H](CCc2cc(F)c(C(F)(F)F)c(F)c2)NC(=O)CN(C)C(=O)[C@H](CC2CCCCC2)N(C)C(=O)[C@@H]2CCN2C(=O)[C@H](C)N(C)C1=O` [Compound 1346] ([NMeL]I[NMeA][Aze][NMeCha][Sar][hPhe(3,5-F2-4-CF3)][Pro(4,4-F2)][Ac5c][NMeGly(cPent)][NMeD]-NMe2; lactam N-11) here?
A: ≤ 0.02 µM

Q: Which IC50 does the source give for `C#CC[C@@H]1NC(=O)[C@H](Cc2cccc(I)c2)NC(=O)CN(C)C(=O)[C@H](Cc2ccc(OC)cc2)N(C)C(=O)[C@@H]2CCN2C(=O)[C@H](C)N(C)C(=O)[C@H]([C@@H](C)CC)NC(=O)[C@H](CC(C)C)N(C)C(=O)C[C@@H](C(=O)N2CCCCC2)N(C)C(=O)[C@H](CC(C)C)NC(=O)C(C)(C)N(C)C1=O` [Compound 1350] ([NMeL]I[NMeA][Aze][NMeY](Me)[Sar][Phe(3-I)][Pra][NMeAib]L[NMeD]-Piperidide; lactam N-11) here?
A: > 0.5 µM

Q: With `CC[C@H](C)[C@@H]1NC(=O)[C@H](CC(C)C)N(C)C(=O)C[C@@H](C(=O)N2CCCCC2)N(C)C(=O)[C@H](C2CCCCC2)NC(=O)C2(CCCC2)NC(=O)[C@@H]2CCCN2C(=O)[C@H](CCc2ccc(C(F)(F)F)c(Cl)c2)NC(=O)CN(C)C(=O)[C@H](CC2CCCCC2)N(C)C(=O)CN(C)C(=O)CN(C)C1=O` [Compound 1354] ([NMeL]I[Sar][Sar][NMeCha][Sar][hPhe(3-Cl-4-CF3)]P[Ac5c][Chg][NMeD]-Piperidide; lactam N-11) as the molecule, how does the IC50 read?
A: > 0.5 µM

Q: Which IC50 does the source give for `CC[C@H](C)[C@@H]1NC(=O)[C@H](CC(F)(F)F)N(C)C(=O)C[C@@H](C(=O)N2CCCC2)N(C)C(=O)[C@H](C2CCCCC2)N(C)C(=O)C2(CCCC2)NC(=O)[C@@H]2CC(F)(F)CN2C(=O)[C@H](CCc2ccc(C(F)(F)F)c(Cl)c2)NC(=O)CN(C)C(=O)[C@H](CC2CCCCC2)N(C)C(=O)CN(C)C(=O)CN(C)C1=O` [Compound 1357] ([NMeAbu(4,4,4-F3)]I[Sar][Sar][NMeCha][Sar][hPhe(3-Cl-4-CF3)][Pro(4,4-F2)][Ac5c][NMeChg][NMeD]-Pyrrolidide; lactam N-11) here?
A: ≤ 0.02 µM

Q: How did the IC50 turn out when `CCCC[C@@H]1NC(=O)[C@H](Cc2cc(I)ccc2C)NC(=O)CN(C)C(=O)[C@H](Cc2ccc(OC)cc2)N(C)C(=O)[C@@H]2CCN2C(=O)[C@H](C)N(C)C(=O)[C@H]([C@@H](C)CC)NC(=O)[C@H](CC)N(C)C(=O)C[C@@H](C(=O)N2CCCCC2)N(C)C(=O)[C@H](CC(C)C)NC(=O)C(C)(C)N(C)C1=O` [Compound 1358] ([NMeAbu]I[NMeA][Aze][NMeY](Me)[Sar][X110][Nle][NMeAib]L[NMeD]-Piperidide; lactam N-11) was run?
A: > 0.5 µM

Q: `C#CC[C@@H]1NC(=O)[C@H](Cc2cccc(I)c2)NC(=O)CN(C)C(=O)[C@H](Cc2ccc(C(F)(F)F)cc2)N(C)C(=O)CN(C)C(=O)CN(C)C(=O)[C@H]([C@@H](C)CC)NC(=O)[C@H](CC(C)C)N(C)C(=O)C[C@@H](C(=O)N2CCCCC2)N(C)C(=O)[C@H](CC(C)C)NC(=O)C(C)(C)N(C)C1=O` [Compound 1361] ([NMeL]I[Sar][Sar][NMePhe(4-CF3)][Sar][Phe(3-I)][Pra][NMeAib]L[NMeD]-Piperidide; lactam N-11) was tested. Which IC50 did it give?
A: > 0.5 µM
